Like-named read-outs stand apart in the source and are kept apart here.

Results on two compounds are retold here after US11191780B2, “Extracellular matrix compositions for the treatment of cancer or immunological diseases” (ADAPTIVE BIOLOGIX, INC., priority 2015, dated 2021).

One test deals with C6 cells. In words: C6 tumor growth in nude mice, subcutaneous co-injection. Type of test: in vivo, mouse. The following applies: vs no treatment control (FIG. 12). The procedure: (§1) Tumor growth of B16 cells, C6 cells, or MDA435 cells in the presence or absence of ECM, and with or without cisplatin, were examined in nude mice. Cells, ECM and Cisplatin were injected simultaneously subcutaneously in the lower haunch of a nude mouse. Tumor growth was followed over time using photography, measurements of length and width, then finally by weight. FIGS. 8 and 9 show the growth of tumors from C6 cells in nude mice in the presence (FIG. 9) and absence (FIG. 8) of ECM on day 14 post-injection. FIGS. 10 and 11 show the growth of tumors from C6 cells in nude mice in the presence of ECM with cisplatin (FIG. 10) and cisplatin without ECM (FIG. 11) of ECM on day 14 post-injection.

The subject of another test is MDA435 cells. Put plainly: MDA435 tumor growth in nude mice, subcutaneous co-injection. Type of test: in vivo, mouse. Here is the method: as §1
In the next test the test system is lung cancer. The settings on record: cited from earlier work.

On to `N.N.[Cl][Pt][Cl]` [cisplatin], for which, in the test on C6 cells, the “tumor growth over 18 days” value was “no growth”. Further, in the test with MDA435 cells (vs no treatment control (FIG. 14)), the “tumor growth over 25 days” value is “reduction in tumor mass to zero”. Besides, the tumor growth result with MDA435 cells (vs no treatment control (FIGS. 13A-D)) is listed as “reduced or no tumor growth”.
With “MEDI4736: an engineered fully-human anti-PD-L1 antibody”, the ORR entry in the test with lung cancer (PD-L1+ patients) is on record as “up to 39%”; with lung cancer (PD-L1 negative patients) it was 5%; in the test with lung cancer (all the patients with lung cancer), 13%.
